In patent US6881741B2 (ViroChem Pharma Inc., priority 2001, dated 2005):
Like-named read-outs stand apart in the source and are kept apart here.

Biological target: recombinant HCV NS5B (HCV RNA-dependent RNA polymerase) (Hepatitis C virus genotype 1b, UniProt P26663)
Assay: biochemical
[1] = related polymerase activity (Example 27 list), read-out: IC50
[2] = HCV polymerase activity, list of compounds of Example 27, read-out: IC50 (polymerase activity)

Chain of recombinant HCV NS5B (HCV RNA-dependent RNA polymerase) (P26663 2420-3010 limits assumed): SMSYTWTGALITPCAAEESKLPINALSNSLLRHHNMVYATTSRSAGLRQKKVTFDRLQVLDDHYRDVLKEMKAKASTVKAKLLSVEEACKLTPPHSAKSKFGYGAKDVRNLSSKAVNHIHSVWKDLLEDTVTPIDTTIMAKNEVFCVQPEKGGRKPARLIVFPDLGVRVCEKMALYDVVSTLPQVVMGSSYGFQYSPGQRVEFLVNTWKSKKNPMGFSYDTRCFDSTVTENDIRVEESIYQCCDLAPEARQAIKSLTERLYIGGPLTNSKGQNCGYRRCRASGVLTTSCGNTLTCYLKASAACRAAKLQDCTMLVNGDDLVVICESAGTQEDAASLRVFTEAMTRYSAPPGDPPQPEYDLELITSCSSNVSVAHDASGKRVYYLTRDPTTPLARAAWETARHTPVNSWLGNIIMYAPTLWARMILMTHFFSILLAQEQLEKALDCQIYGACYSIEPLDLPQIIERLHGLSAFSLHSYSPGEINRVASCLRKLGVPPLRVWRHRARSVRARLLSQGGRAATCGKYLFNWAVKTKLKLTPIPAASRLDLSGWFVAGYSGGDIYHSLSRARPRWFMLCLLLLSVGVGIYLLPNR

SMILES: COc1cccc(-c2cc(NS(=O)(=O)c3ccccc3C)c(C(=O)O)s2)c1 [Compound 123, 5-(3-METHOXY-PHENYL)-3-(TOLUENE-2-SULFONYLAMINO)-THIOPHENE-2-CARBOXYLIC ACID]
- IC50 [1]: < 5 µM

SMILES: Cc1ccc(C(=O)N(C)c2cc(-c3cccc(O)c3)sc2C(=O)O)cc1 [Compound 273, 5-(3-HYDROXY-PHENYL)-3-[METHYL-(4-METHYL-BENZOYL)-AMINO]-THIOPHENE-2-CARBOXYLIC ACID]
- IC50 [1]: < 5 µM

SMILES: O=C(O)c1sc(-c2ccccc2)cc1N(C(=O)c1ccc(Cl)cc1Cl)C1CCNC1 (stereo not shown) [Compound 503, 3-[(2,4-DICHLORO-BENZOYL)- PYRROLIDIN-3-YL-AMINO]-5-PHENYL- THIOPHENE-2-CARBOXYLIC ACID]
- IC50 [2]: 5 to 20 µM

SMILES: Cc1ccc(CN(C(=O)C(C)C)c2cc(-c3ccccc3)sc2C(=O)O)cc1 [Compound 468, 3-[ISOBUTYRYL-(4-METHYL-BENZYL)- AMINO]-5-PHENYL-THIOPHENE-2- CARBOXYLIC ACID]
- IC50 [2]: 5 to 20 µM

SMILES: Cc1cccc(-c2cc(NS(=O)(=O)c3ccccc3C)c(C(=O)O)s2)c1 [Compound 64, 3-(TOLUENE-2-SULFONYLAMINO)-5-M-TOLYL-THIOPHENE-2-CARBOXYLIC ACID]
- IC50 [1]: < 5 µM

SMILES: CC(C)Cc1cc(N(C(=O)c2ccc(Cl)cc2Cl)C(C)C)c(C(=O)O)s1 [Compound 346, 3-[(2,4-DICHLORO-BENZOYL)- ISOPROPYL-AMINO]-5-ISOBUTYL- THIOPHENE-2-CARBOXYLIC ACID]
- IC50 [1]: < 5 µM

SMILES: CC(C)N(C(=O)[C@H]1CC[C@H](C)C[C@H]1O)c1cc(-c2ccc(F)cc2)sc1C(=O)O [Compound 560]
- IC50 [2]: < 5 µM

SMILES: N=C(N)N1CCC(N(C(=O)c2ccc(Cl)cc2Cl)c2cc(-c3ccccc3)sc2C(=O)O)CC1 [Compound 506, 3-[(1-CARBAMIMIDOYL-PIPERIDIN-4-YL)- (2,4-DICHLORO-BENZOYL)-AMINO]-5- PHENYL-THIOPHENE-2-CARBOXYLIC ACID]
- IC50 [2]: < 5 µM

SMILES: Cc1ccc(S(=O)(=O)Nc2cc(-c3ccc(F)cc3)sc2C(=O)O)cc1 [Compound 6, 5-(4-FLUORO-PHENYL)-3-(TOLUENE-4-SULFONYLAMINO)-THIOPHENE-2-CARBOXYLIC ACID]
- IC50 [1]: < 5 µM

SMILES: CN(C(=O)c1ccccc1Br)c1cc(-c2ccccc2)sc1C(=O)O [Compound 187, 3-[(2-BROMO-BENZOYL)-METHYL-AMINO]-5-PHENYL-THIOPHENE-2-CARBOXYLIC ACID]
- IC50 [1]: 5 to 20 µM

SMILES: COc1cc(C)ccc1S(=O)(=O)Nc1cc(-c2ccccc2)sc1C(=O)O [Compound 142, 3-(2-METHOXY-4-METHYL-BENZENESULFONYLAMINO)-5-PHENYL-THIOPHENE-2-CARBOXYLIC ACID]
- IC50 [1]: 5 to 20 µM

SMILES: CC(C)(C)OC(=O)N1CCC(N(C(=O)c2ccc(Cl)cc2Cl)c2cc(-c3ccccc3)sc2C(=O)O)C1 (stereo not shown) [Compound 499, 3-[(2-CARBOXY-5-PHENYL-THIOPHEN-3- YL)-(2,4-DICHLORO-BENZOYL)-AMINO]- PYRROLIDINE-1-CARBOXYLIC ACID #TERT!-BUTYL ESTER]
- IC50 [2]: < 5 µM

SMILES: CC(C)CC(=O)N(Cc1ccccc1)c1cc(-c2ccccc2)sc1C(=O)O [Compound 453, 3-[BENZYL-(3-METHYL-BUTYRYL)- AMINO]-5-PHENYL-THIOPHENE-2- CARBOXYLIC ACID]
- IC50 [2]: < 5 µM

SMILES: CCCC(=O)N(Cc1ccc(Cl)cc1)c1cc(-c2ccccc2)sc1C(=O)O [Compound 462, 3-[BUTYRYL-(4-CHLORO-BENZYL)- AMINO]-5-PHENYL-THIOPHENE-2- CARBOXYLIC ACID]
- IC50 [2]: 5 to 20 µM

SMILES: Cc1ccc(C(=O)N(c2cc(-c3cccc(C(F)(F)F)c3)sc2C(=O)O)C(C)C)cc1 [Compound 304, 3-[ISOPROPYL-(4-METHYL-BENZOYL)- AMINO]-5-(3-TRIFLUOROMETHYL- PHENYL)-THIOPHENE-2-CARBOXYLIC ACID]
- IC50 [1]: < 5 µM

SMILES: CC(C)N(C(=O)c1cc(-c2ccccc2)sc1C(=O)O)c1ccc(Cl)cc1Cl [Compound 583, 3-[(2,4-DICHLORO-PHENYL)-ISOPROPYL- CARBAMOYL]-5-PHENYL-THIOPHENE-2- CARBOXYLIC ACID]
- IC50 [2]: < 5 µM
